# Laboratory results: patent US11559528B2, “BACE1 inhibition for the treatment of cancer” (The Cleveland Clinic Foundation, priority 2019, dated 2023)
# What was measured:
# STAT3 (pSTAT3-Y705) = experiment: Immunoblot of STAT3 activating phosphorylation in U937-derived M2 macrophages; type: cell-based, human; settings: MK-8931 50 μg/mL three days
# Description: FIG. 7, panels A-G. BACE1 Maintains M2 Macrophages through STAT3 Activation (A) Immunoblot analyses of STAT3 and STAT6 activation (pSTAT3-Y705 and pSTAT6-Y641) in U937-derived M2 macrophages affected by BACE1 knockdown. […] (B) Immunoblot analysis of STAT3 and STAT6 activation (pSTAT3-Y705 and pSTAT6-Y641) in U937-derived M2 macrophages in response to MK-8931 treatment. […] (C-E) In vivo analysis of STAT3 activating phosphorylation in TAMs by double immunofluorescent staining of IBA1 with pSTAT3-Y705 in GBM xenografts treated with MK-8931 or vehicle control. GBM xenografts were established by implantation of glioma stem cells (T4121) through intracranial injection. […] Representative images (C) showing the fluorescent staining of IBA1 (in green) and the pSTAT3 (in red) in MK-8931-treated or control GBM xenografts. […] Scale bar represents 3 μM. Ctl: Control. MK: MK-8931. […] Ectopic expression of STAT3-C attenuated the M2 to M1 switch caused by BACE1 knockdown.
# [1] = system: GBM xenografts derived from T4121 GSCs; experiment: Intracranial GBM xenografts from T4121 glioma stem cells; type: in vivo, mouse
# Description: FIG. 4, panels A-F. BACE1 Inhibition by MK-8931 Converts M2 TAMs into M1 Macrophages to Phagocytize Glioma Cells in GBM Xenografts. (A and B) Density analysis of M2 TAMs by immunofluorescent staining of the M2 TAM marker (CD163 or FIZZ1) and the total TAM marker IBA1 and in GBM xenografts treated with MK-8931 or vehicle control. GBM xenografts were established by implantation of glioma stem cells (T4121) through intracranial injection. […] Representative immunofluorescent images (A) showing M2 TAMs (CD163^+ or FIZZ1^+, in red) and total TAMs (IBA1^+, in green) in the MK-8931-treated or control GBM xenografts. […] (C and D) Density analysis of M1 TAMs by immunofluorescent staining of the M TAM marker (HLA-DR or CD11c) and the total TAM marker IBA1 and in GBM xenografts treated with MK-8931 or vehicle control. […] Representative immunofluorescent images (C) showing M1 TAMs (HLA-DR^+ or CD11c^+, in red) and total TAMs (IBA1^+, in green) in the MK-8931-treated or control GBM xenografts. […] (E and F) In vivo phagocytosis of TAMs against human glioma cells in the MK-8931-treated or control GBM xenografts. […] Representative images (E) showing in vivo TAM phagocytosis as inclusion bodies of glioma cells (TRA-1-85^+, in red) with TAMs (IBA1, in green) in the MK-8931 treated GBM xenografts but not in the control tumors. […] Scale bar represents 30 μM. Ctl: Control; MK: MK-8931.
# [2] = 30 mg/kg once daily oral gavage two weeks
# [3] = 30 mg/kg once daily oral gavage two weeks, p<0.001
compound,measurement,setting,value
CN1C(N)=N[C@](C)(c2cc(NC(=O)c3ccc(F)cn3)ccc2F)CS1(=O)=O [MK-8931],activating phosphorylation of STAT3 (pSTAT3-Y705),STAT3 (pSTAT3-Y705),significantly down-regulated
same,IBA1+/pSTAT3+ double positive cells (TAMs),[1]; [2],significantly reduced STAT3 activating phosphorylation in TAMs
same,pSTAT3+ cells in xenografts,[1]; [2],significantly reduced STAT3 activating phosphorylation in GBM xenografts
same,density of M1 TAMs (HLA-DR+/IBA1+ or CD11c+/IBA1+),[1]; [3],significantly increased density of M1 TAMs
same,density of M2 TAMs (CD163+/IBA1+ or FIZZ1+/IBA1+),[1]; [3],significantly reduced density of M2 TAMs
same,in vivo TAM phagocytosis (inclusion bodies of TRA-1-85+ glioma cells with IBA1+ TAMs),"[1]; 30 mg/kg once daily oral gavage, p<0.01",promoted TAM phagocytosis
